ChEMBL document CHEMBL1201862, “PubChem BioAssay data set” (2004)
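Tested at 5 concentrations; 48 h exposure; 96-well plates; endpoints linearly interpolated, else capped at highest concentration. GI50 is the concentration that inhibits growth by half.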 Activity calls are given as the source filed them. Cut-off read from the data, not from the text of the source: active = GI50 up to about 1.1 µM and inactive = higher.

Assays:
Assay in all cases: growth of human tumour cells (NCI), 48 h
OVCAR-8 = tested on: OVCAR-8
A498 = tested on: A498
SW-620 = tested on: SW-620
SNB-78 = tested on: SNB-78
NCI-H522 = tested on: NCI-H522
IGROV-1 = tested on: IGROV-1
HOP-92 = tested on: HOP-92
A549 = tested on: A549
CCRF-CEM = tested on: CCRF-CEM
COLO 205 = tested on: COLO 205
RXF 393 = tested on: RXF 393
XF498 = tested on: XF498
UACC-257 = tested on: UACC-257
UO-31 = tested on: UO-31
LXFL 529 = tested on: LXFL 529
HT-29 = tested on: HT-29
K562 = tested on: K562
OVCAR-3 = tested on: OVCAR-3
OVCAR-4 = tested on: OVCAR-4
DLD-1 = tested on: DLD-1
ACHN = tested on: ACHN
KM12 = tested on: KM12
M19-MEL = tested on: M19-MEL
RPMI-8226 = tested on: RPMI-8226
HCT-15 = tested on: HCT-15
LOX IMVI = tested on: LOX IMVI
SK-MEL-2 = tested on: SK-MEL-2
SK-OV-3 = tested on: SK-OV-3
NCI-H460 = tested on: NCI-H460
Malme-3M = tested on: Malme-3M
SK-MEL-28 = tested on: SK-MEL-28
M14 = tested on: M14
786-0 = tested on: 786-0
CAKI-1 = tested on: CAKI-1
OVCAR-5 = tested on: OVCAR-5
TK-10 = tested on: TK-10
SK-MEL-5 = tested on: SK-MEL-5
HL-60 = tested on: HL-60
MOLT-4 = tested on: MOLT-4
DMS-114 = tested on: DMS-114
SNB-19 = tested on: SNB-19
HCC 2998 = tested on: HCC 2998
SF-268 = tested on: SF-268
HOP-62 = tested on: HOP-62
NCI-H226 = tested on: NCI-H226
EKVX = tested on: EKVX
SN12C = tested on: SN12C
NCI-H23 = tested on: NCI-H23
SF-539 = tested on: SF-539
UACC-62 = tested on: UACC-62
SNB-75 = tested on: SNB-75
SF-295 = tested on: SF-295
DMS-273 = tested on: DMS-273
SR = tested on: SR
KM-20L2 = tested on: KM-20L2
HCT-116 = tested on: HCT-116
U-251 = tested on: U-251

O=C1NC(=O)C2C(=O)NC(=O)C1C2(c1ccccc1)c1cc[nH]c1 (configuration not stated)
GI50 (OVCAR-8): > 100 µM (inactive) | GI50 (A498): > 100 µM (inactive) | GI50 (SW-620): > 100 µM (inactive) | GI50 (SNB-78): > 100 µM (inactive) | GI50 (NCI-H522): > 100 µM (inactive) | GI50 (IGROV-1): > 100 µM (inactive) | GI50 (HOP-92): > 100 µM (inactive) | GI50 (A549): > 100 µM (inactive) | GI50 (CCRF-CEM): > 100 µM (inactive) | GI50 (COLO 205): > 100 µM (inactive) | GI50 (RXF 393): > 100 µM (inactive) | GI50 (XF498): > 100 µM (inactive) | GI50 (UACC-257): > 100 µM (inactive) | GI50 (UO-31): 74.6 µM (inactive) | GI50 (LXFL 529): > 100 µM (inactive) | GI50 (HT-29): > 100 µM (inactive) | GI50 (K562): > 100 µM (inactive) | GI50 (OVCAR-3): > 100 µM (inactive) | GI50 (OVCAR-4): > 100 µM (inactive) | GI50 (DLD-1): > 100 µM (inactive) | GI50 (ACHN): > 100 µM (inactive) | GI50 (KM12): > 100 µM (inactive) | GI50 (M19-MEL): > 100 µM (inactive) | GI50 (RPMI-8226): > 100 µM (inactive) | GI50 (HCT-15): > 100 µM | GI50 (LOX IMVI): > 100 µM (inactive) | GI50 (SK-MEL-2): > 100 µM (inactive) | GI50 (SK-OV-3): > 100 µM (inactive) | GI50 (NCI-H460): > 100 µM (inactive) | GI50 (Malme-3M): > 100 µM (inactive) | GI50 (SK-MEL-28): > 100 µM (inactive) | GI50 (M14): > 100 µM (inactive) | GI50 (786-0): > 100 µM (inactive) | GI50 (CAKI-1): > 100 µM (inactive) | GI50 (OVCAR-5): > 100 µM (inactive) | GI50 (TK-10): > 100 µM (inactive) | GI50 (SK-MEL-5): > 100 µM (inactive) | GI50 (HL-60): > 100 µM (inactive) | GI50 (MOLT-4): > 100 µM (inactive) | GI50 (DMS-114): > 100 µM (inactive) | GI50 (SNB-19): > 100 µM (inactive) | GI50 (HCC 2998): > 100 µM (inactive) | GI50 (SF-268): > 100 µM (inactive) | GI50 (HOP-62): > 100 µM (inactive) | GI50 (NCI-H226): > 100 µM (inactive) | GI50 (EKVX): > 100 µM (inactive) | GI50 (SN12C): > 100 µM (inactive) | GI50 (NCI-H23): > 100 µM (inactive) | GI50 (SF-539): > 100 µM (inactive) | GI50 (UACC-62): > 100 µM (inactive) | GI50 (SNB-75): > 100 µM (inactive) | GI50 (SF-295): > 100 µM (inactive) | GI50 (DMS-273): > 100 µM (inactive)

O=C1c2ccccc2OP(=O)(OCC(F)(F)F)OC1(C(F)(F)F)C(F)(F)F (configuration not stated)
GI50 (OVCAR-8): > 100 µM (inactive) | GI50 (A498): > 100 µM (inactive) | GI50 (SW-620): > 100 µM (inactive) | GI50 (SNB-78): > 100 µM (inactive) | GI50 (NCI-H522): > 100 µM (inactive) | GI50 (IGROV-1): > 100 µM (inactive) | GI50 (HOP-92): > 100 µM (inactive) | GI50 (A549): > 100 µM (inactive) | GI50 (CCRF-CEM): > 100 µM (inactive) | GI50 (COLO 205): > 100 µM (inactive) | GI50 (RXF 393): > 100 µM (inactive) | GI50 (XF498): > 100 µM (inactive) | GI50 (SR): > 100 µM (inactive) | GI50 (UACC-257): > 100 µM (inactive) | GI50 (UO-31): 45.3 µM (inactive) | GI50 (LXFL 529): > 100 µM (inactive) | GI50 (HT-29): > 100 µM (inactive) | GI50 (K562): > 100 µM (inactive) | GI50 (OVCAR-4): > 100 µM (inactive) | GI50 (ACHN): > 100 µM (inactive) | GI50 (KM12): > 100 µM (inactive) | GI50 (M19-MEL): > 100 µM (inactive) | GI50 (RPMI-8226): > 100 µM (inactive) | GI50 (HCT-15): > 100 µM | GI50 (LOX IMVI): > 100 µM (inactive) | GI50 (SK-MEL-2): > 100 µM (inactive) | GI50 (KM-20L2): > 100 µM (inactive) | GI50 (SK-OV-3): > 100 µM (inactive) | GI50 (NCI-H460): > 100 µM (inactive) | GI50 (SK-MEL-28): > 100 µM (inactive) | GI50 (HCT-116): > 100 µM (inactive) | GI50 (M14): > 100 µM (inactive) | GI50 (786-0): > 100 µM (inactive) | GI50 (CAKI-1): > 100 µM (inactive) | GI50 (OVCAR-5): > 100 µM (inactive) | GI50 (TK-10): > 100 µM (inactive) | GI50 (SK-MEL-5): > 100 µM (inactive) | GI50 (HL-60): > 100 µM (inactive) | GI50 (MOLT-4): > 100 µM (inactive) | GI50 (DMS-114): > 100 µM (inactive) | GI50 (SNB-19): > 100 µM (inactive) | GI50 (HCC 2998): > 100 µM (inactive) | GI50 (SF-268): > 100 µM (inactive) | GI50 (HOP-62): > 100 µM (inactive) | GI50 (NCI-H226): > 100 µM (inactive) | GI50 (EKVX): > 100 µM (inactive) | GI50 (SN12C): > 100 µM (inactive) | GI50 (U-251): > 100 µM (inactive) | GI50 (NCI-H23): > 100 µM (inactive) | GI50 (SF-539): > 100 µM (inactive) | GI50 (UACC-62): > 100 µM (inactive) | GI50 (SNB-75): > 100 µM (inactive) | GI50 (SF-295): > 100 µM (inactive) | GI50 (DMS-273): > 100 µM (inactive)
